Some test systems named below: K562; MDA-MB-435; SK-MEL-5; CCRF-CEM; HT-29; SNB-19; SK-OV-3; SR; M14; SW-620; SF-268; OVCAR-4; SNB-75; OVCAR-8; UO-31; LOX IMVI; MDA-MB-231; RPMI-8226; TK-10; OVCAR-3.
Holding throughout (assay): DTP human tumour cell line panel, 48 h

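Assay format: 96-well plates, 48-hour exposure. GI50 = concentration required for 50% inhibition of growth.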 Calls of active or inactive are those of the source. Cut-off read from the data, not from the text of the source: active = GI50 up to about 1.1 µM and inactive = higher.

Turning to `CCN(CCCl)c1cc(CN(C)C)cc(NC(=O)C23CCC(C(=O)Nc4cc(CN(C)C)cc(N(CC)CCCl)c4)(CC2)CC3)c1`, the GI50 in the assay with K562 was 0.738 µM (active); in the assay on MDA-MB-435, 1.39 µM (inactive); in the assay with SK-MEL-5 it was 1.75 µM (inactive); with CCRF-CEM it was < 0.01 µM (active); in the assay on HT-29, 0.229 µM (active); in the assay on SNB-19, 0.113 µM (active). In addition, the concentration for 50% growth inhibition (GI50) is 0.372 µM (active) with SK-OV-3; 0.0329 µM (active) with SR; 2.97 µM (inactive) in the assay with M14; 0.105 µM (active) in the assay on SW-620; 0.23 µM (active) in the assay on SF-268; 1.4 µM (inactive) in the assay on OVCAR-4. For the same compound, the concentration for 50% growth inhibition (GI50) is 1.01 µM (active) in the assay on SNB-75; 1.11 µM (active) with OVCAR-8; 17.1 µM (inactive) in the assay with UO-31; 0.152 µM (active) with LOX IMVI; 12.8 µM (inactive) in the assay on MDA-MB-231; 1.35 µM (inactive) with RPMI-8226. The GI50 in the assay with TK-10 was 8.49 µM (inactive).
As for `COc1cc(C(c2cccc3ccccc23)N2C(=O)CCC2C(=O)O)cc(OC)c1OC` (centres undefined), the GI50 with OVCAR-3, in the assay with K562, with MDA-MB-435, with SK-MEL-5, in the assay on CCRF-CEM and with HT-29 was > 100 µM (inactive) throughout. Further, the GI50 in the assay on SNB-19, in the assay with SK-OV-3, in the assay with SR, in the assay on M14, with SW-620 and with SF-268 was > 100 µM (inactive) in each case. The GI50 in the assay on OVCAR-4, in the assay with SNB-75, in the assay on OVCAR-8, in the assay with UO-31, with MDA-MB-231 and in the assay with RPMI-8226 was > 100 µM (inactive) in each case.
Turning to `O=C(C/N=C(\CN(c1ccccc1)c1ccccc1)Oc1c(Cl)cc(Cl)cc1Cl)N1c2ccccc2Sc2ccccc21`, the GI50 in the assay with OVCAR-3 is 46.8 µM (inactive); with K562, > 10 µM (inactive); in the assay on MDA-MB-435, 34.2 µM (inactive); in the assay on SK-MEL-5, 21.4 µM (inactive); in the assay on CCRF-CEM, 41.8 µM (inactive); in the assay on HT-29 it was 43.3 µM (inactive). Moreover, the GI50 in the assay with SNB-19 was > 100 µM (inactive); in the assay on SK-OV-3, 29.6 µM (inactive); in the assay with SR, 35.2 µM (inactive); with M14, 30.5 µM (inactive); in the assay with SW-620, 65 µM (inactive); in the assay on SF-268 it was 81.7 µM (inactive). Moreover, the GI50 in the assay with OVCAR-4 is 88.7 µM (inactive); in the assay on SNB-75 it was 22.3 µM (inactive); in the assay with OVCAR-8 it was 35.4 µM (inactive); in the assay on MDA-MB-231, > 100 µM (inactive); in the assay on RPMI-8226 it was 62.2 µM (inactive); in the assay with TK-10 it was 43.9 µM (inactive).
Regarding `O=C(CC(=O)N1N=C(N(c2ccccc2)c2ccccc2)CC1c1ccccc1)Nc1cccc(Cl)c1` (centres undefined), the GI50 with OVCAR-3, in the assay with K562, in the assay on MDA-MB-435, in the assay on SK-MEL-5, in the assay with CCRF-CEM and in the assay with HT-29 was > 100 µM (inactive) throughout. Besides, the GI50 with SNB-19, in the assay with SK-OV-3, with SR, in the assay with M14, in the assay with SW-620 and in the assay with SF-268 was > 100 µM (inactive) in each case. Besides, the GI50 in the assay on OVCAR-4, in the assay with SNB-75, in the assay with OVCAR-8, in the assay with UO-31, in the assay with MDA-MB-231 and in the assay with RPMI-8226 was > 100 µM (inactive) throughout. Further, the GI50 in the assay on TK-10 was > 100 µM (inactive).
For `COc1ccc(CCCCl)c(C2=NCCc3ccccc32)c1`, the GI50 in the assay on OVCAR-3 is 56.5 µM (inactive); in the assay with K562 it was 14.6 µM (inactive); with MDA-MB-435, 26.2 µM (inactive); in the assay on SK-MEL-5, 9.59 µM (inactive); in the assay on CCRF-CEM, 53.6 µM (inactive); in the assay on HT-29 it was 19.2 µM (inactive). The GI50 in the assay on SNB-19 is 14.8 µM (inactive); with SK-OV-3 it was > 100 µM (inactive); in the assay with SR, 28.1 µM (inactive); in the assay with M14, 71.3 µM (inactive); in the assay on SW-620, 70.8 µM (inactive); in the assay with SF-268, 27.5 µM (inactive). For the same compound, the GI50 in the assay on OVCAR-4 is 45.1 µM (inactive); in the assay on SNB-75 it was 29.1 µM (inactive); in the assay with OVCAR-8, 35.4 µM (inactive); with UO-31 it was 66.5 µM (inactive); in the assay on MDA-MB-231, 25.1 µM (inactive); with RPMI-8226, 2.99 µM (inactive). Also, in the assay on TK-10, the GI50 is > 100 µM (inactive).
On to `O=C1CSC2(CC(/C=C/c3ccccc3O)=NN2c2cccc(S(=O)(=O)O)c2)N1c1nc2ccccc2s1` (centres undefined), for which the GI50 was 24.7 µM (inactive) with K562; 21.4 µM (inactive) in the assay on MDA-MB-435; 25.9 µM (inactive) in the assay on SK-MEL-5; 14.6 µM (inactive) with CCRF-CEM; 45.4 µM (inactive) in the assay on HT-29; 53.7 µM (inactive) with SNB-19. For the same compound, the GI50 in the assay on SR is 18.4 µM (inactive); in the assay with M14, 59.4 µM (inactive); in the assay on SW-620, 37.3 µM (inactive); with SF-268 it was 45 µM (inactive); in the assay with OVCAR-4, 22 µM (inactive); with SNB-75 it was 90.8 µM (inactive). Besides, the GI50 was 17.9 µM (inactive) in the assay on OVCAR-8; 28.7 µM (inactive) with UO-31; 17.3 µM (inactive) with LOX IMVI; 30.1 µM (inactive) in the assay with MDA-MB-231; 16 µM (inactive) with RPMI-8226; 20 µM (inactive) with TK-10.
On to `COC(=O)C1C(O)C(C)C(=O)C(C)/C=C\C=C(C)C(=O)Nc2c(C)c(OC(C)=O)c3c(c2O)C(=O)C(C)=C2OCOC(=C23)C(C)=CC(C)(O)C(O)C(C)C1O` (centres undefined), for which the GI50 in the assay with OVCAR-3 was 42.4 µM (inactive); with K562, 19.1 µM (inactive); in the assay with MDA-MB-435, 39.2 µM (inactive); in the assay with SK-MEL-5 it was 14.5 µM (inactive); in the assay with CCRF-CEM, 20 µM (inactive); in the assay on HT-29, 29.9 µM (inactive). For the same compound, the GI50 with SNB-19 is > 100 µM (inactive); in the assay with SK-OV-3, > 100 µM (inactive); in the assay on SR, 30.3 µM (inactive); with M14 it was 25.4 µM (inactive); in the assay on SW-620 it was 33.8 µM (inactive); with SF-268, 99.8 µM (inactive). For the same compound, the GI50 in the assay on SNB-75 was 49 µM (inactive); in the assay on OVCAR-8, 33.7 µM (inactive); in the assay on UO-31 it was 23.5 µM (inactive); with LOX IMVI, 24.9 µM (inactive); with MDA-MB-231 it was > 100 µM (inactive); in the assay with RPMI-8226 it was > 100 µM (inactive).
Regarding `Cc1c(C#N)c(N)n(C2OCC(O)C(O)C2O)c(=S)c1C#N` (centres undefined), the GI50 in the assay with OVCAR-3, in the assay with K562, in the assay on MDA-MB-435, in the assay with SK-MEL-5, with CCRF-CEM and with HT-29 was > 100 µM (inactive) in each case. The GI50 in the assay on SNB-19, in the assay on SK-OV-3, with SR, in the assay with M14, with SW-620 and in the assay with SF-268 was > 100 µM (inactive) in each case. Besides, the GI50 in the assay on SNB-75 is 83.4 µM (inactive); in the assay with OVCAR-8 it was > 100 µM (inactive); in the assay on UO-31 it was > 100 µM (inactive); in the assay with LOX IMVI, > 100 µM (inactive); in the assay with MDA-MB-231 it was > 100 µM (inactive); in the assay with RPMI-8226, > 100 µM (inactive). Further, the GI50 with TK-10 was > 100 µM (inactive).
As to `CC(=O)OC1C[C@@H](C)C2(C[C@H](O)c3ccoc3)C(=O)OC[C@]13C2CCC(O)C31CO1` (some centres undefined), the GI50 in the assay with OVCAR-3, in the assay with K562, in the assay with MDA-MB-435, in the assay with SK-MEL-5, in the assay on CCRF-CEM and with HT-29 was > 100 µM (inactive) each time. Besides, the GI50 with SNB-19, in the assay on SR, in the assay with M14, with SF-268, with OVCAR-4 and with SNB-75 was > 100 µM (inactive) in each case. Also, the GI50 with OVCAR-8, in the assay with UO-31, in the assay with LOX IMVI, in the assay with MDA-MB-231, in the assay on RPMI-8226 and with TK-10 was > 100 µM (inactive) each time.
Take `CC(=O)OC1CC[C@@]2(C)C(C1)CC(OC(C)=O)[C@@H]1C2CC(OC(C)=O)[C@]2(C)C(C(C)CC=C(c3ccc(Cl)cc3)c3ccc(Cl)cc3)CCC12` (some centres undefined): the GI50 in the assay on K562 is 15.2 µM (inactive); in the assay on MDA-MB-435 it was > 100 µM (inactive); in the assay on SK-MEL-5 it was 55.1 µM (inactive); in the assay on CCRF-CEM, 16.3 µM (inactive); in the assay on HT-29, 39 µM (inactive); in the assay on SNB-19 it was 58.6 µM (inactive). Also, the GI50 in the assay with SK-OV-3 was > 100 µM (inactive); in the assay with SR, 20.2 µM (inactive); in the assay on M14 it was 80.4 µM (inactive); with SW-620, 49.8 µM (inactive); in the assay with SF-268, 59.3 µM (inactive); in the assay on OVCAR-4, 76.6 µM (inactive). In addition, the GI50 with SNB-75 is 49.5 µM (inactive); with OVCAR-8, 80.4 µM (inactive); in the assay with UO-31, 56.2 µM (inactive); in the assay with MDA-MB-231 it was 48 µM (inactive); in the assay with RPMI-8226, 5.33 µM (inactive); with TK-10 it was 80.4 µM (inactive).

A word on the GI50: it is the concentration at which growth is held to half of that of the control.
